Measured values taken from patent US20220081434A1, “DIHYDROISOQUINOLINE COMPOUND” (SUZHOU ARK BIOPHARMACEUTICAL CO., LTD., priority 2019, published 2022).
Read-outs that look alike come from different tables or passages of the source.

What was measured:
[1] = test system: hepatitis B surface antigen (HBsAg); test: Determination of hepatitis B surface antigen (HBsAg) in HepG2.2.15 cell supernatant; type: cell-based, hepatitis B virus (HepG2.2.15 cells); details: Hepatitis B virus, HepG2.2.15, 96 h, read-out: HBsAg inhibitory activity IC50
Protocol: (§1) The full genome of HBV was inserted into an […] cell, which could therefore express HBV continuously (Sells et al, Proc Natl Acad Sci USA. 1987 February; 84 (4):1005-9). The culture condition was DMEM medium containing 10% serum and […] G418. Cells were placed in an incubator containing 5% CO2 and cultured at 37° C.
HepG2.2.15 cells were seeded into a 96-well culture plate at a density of 3×10^4 cells/well. On the next day, the drug dissolved in DMSO was subjected to a 5-fold dilution and then added to the cells. 0.5% DMSO was added separately as control. The supernatant was collected after 4 days of drug action, and the content of hepatitis B surface antigen was determined.
The determination of hepatitis B surface antigen was carried out by using a kit for quantitative determination of hepatitis B virus surface antigen (chemiluminescence method). The specific operations were as follows. 50 μL cell culture supernatant was taken and transferred to the assay plate. 50 μL of enzyme-linked reagent was added thereto and the assay plate was sealed. Incubation was carried out at room temperature for 1 hour. Afterwards, the assay plate was washed six times with PBS, and finally, the residual liquid was removed by shaking the plate. 25 μL of substrates A and B were added respectively, and the determination was conducted by using a microplate reader (Tecan Infinite® F200) after ten minutes of reaction. IC50 was calculated after fitting the dose-response curve.

[2] = test system: HBV DNA; test: Determination of HBV DNA in HepG2.2.15 cell supernatant by qPCR; type: cell-based, hepatitis B virus (HepG2.2.15 cells); details: Hepatitis B virus, 168 h, HepG2.2.15 cells, supernatant after a total of 7 days of drug action, read-out: Inhibitory activity against HBV DNA IC50
Protocol: as §1
HepG2.2.15 cells were seeded into a 96-well culture plate at a density of 4×10^4 cells/well. After 4 hours, the drug dissolved in DMSO was subjected to a 4-fold dilution and then added to cells. 0.5% DMSO was added separately as control. On the 4th day of drug action, the original supernatant was removed and then the drug was added thereto again. The supernatant was collected after a total of 7 days of drug action and treated with lysis buffer. The determination of hepatitis B DNA was carried out by real-time fluorescence-based quantitative polymerase chain reaction (qPCR). After the completion of the qPCR, data were exported from the instrument and analyzed, and IC50 indicating antiviral activity was calculated after fitting the dose-response curve.

[3] = Pharmacokinetic experiments in ICR mice (plasma); type: in vivo; details: for AUC(0-t): read-out: AUC0-12
Protocol: Multiple compounds in the Examples of the present disclosure were administered to ICR mice to conduct pharmacokinetic experiments. A single intravenous injection (with a dose of 2 mg/kg) and a single oral administration (with a dose of 10 mg/kg) were administered respectively. Blood was respectively collected prior to administration and 5 minutes, 15 minutes, 30 minutes, 1 hour, 2 hours, 4 hours, 8 hours, 12 hours and 24 hours after administration, and the concentration of the test compound in plasma was determined. Plasma pharmacokinetic data of the control compound (obtained from Example 28 in patent WO2018130152 A1) and the compounds of Examples 10 and 19 in the present disclosure in mice were as shown in the following Table 5 to Table 7.

[4] = mouse, single intravenous injection 2 mg/kg, plasma
[5] = mouse, single oral administration 10 mg/kg, plasma

Question: Which IC50 [1] does the source give for `COc1cc2c(cc1-c1cnc(N3CCC(O)CC3)s1)CC(C(C)(C)C)n1cc(C(=O)O)c(=O)cc1-2` (stereo not shown) [Example 1, 6-tert-butyl-9-[2-(4-hydroxypiperidin-1-yl)thiazol-5-yl]-10-methoxy-2-oxo-6,7-dihydro-2H-pyrido[2,1-a]isoquinoline-3-carboxylic Acid] here?
Answer: 330 pM

Question: With `COc1cc2c(cc1-c1cnc(N3CCC(CO)CC3)s1)CC(C(C)(C)C)n1cc(C(=O)O)c(=O)cc1-2` (stereo not shown) [Example 2, 6-tert-butyl-9-{2-[4-(hydroxymethyl)piperidin-1-yl]thiazol-5-yl}-10-methoxy-2-oxo-6,7-dihydro-2H-pyrido[2,1-a]isoquinoline-3-carboxylic Acid] as the compound, how does the IC50 [1] read?
Answer: 60 pM

Question: What about the IC50 [2] of the same compound?
Answer: 110 pM

Question: Which IC50 [1] does the source give for `COc1cc2c(cc1-c1cnc(N3CCC3)s1)CC(C(C)(C)C)n1cc(C(=O)O)c(=O)cc1-2` (stereo not shown) [Example 3, 9-[2-(azetidin-1-yl)thiazol-5-yl]-6-tert-butyl-10-methoxy-2-oxo-6,7-dihydro-2H-pyrido[2,1-a]isoquinoline-3-carboxylic Acid] here?
Answer: 70 pM

Question: With `COc1cc2c(cc1-c1cnc(N3CC(F)(F)C3)s1)CC(C(C)(C)C)n1cc(C(=O)O)c(=O)cc1-2` (stereo not shown) [Example 4, 6-tert-butyl-9-[2-(3,3-difluoroazetidin-1-yl)thiazol-5-yl]-10-methoxy-2-oxo-6,7-dihydro-2H-pyrido[2,1-a]isoquinoline-3-carboxylic Acid] as the compound, how does the IC50 [1] read?
Answer: 45 pM

Question: What about the IC50 [2] of the same compound?
Answer: 260 pM

Question: Which IC50 [1] does the source give for `COc1cc2c(cc1-c1cnc(N3CCOCC3)s1)CC(C(C)(C)C)n1cc(C(=O)O)c(=O)cc1-2` (stereo not shown) [Example 5, 6-tert-butyl-10-methoxy-9-(2-morpholinothiazol-5-yl)-2-oxo-6,7-dihydro-2H-pyrido[2,1-a]isoquinoline-3-carboxylic Acid] here?
Answer: 300 pM

Question: With `COc1cc2c(cc1-c1cnc(N(C)C)s1)CC(C(C)(C)C)n1cc(C(=O)O)c(=O)cc1-2` (stereo not shown) [Example 6, 6-tert-butyl-9-[2-(dimethylamino)thiazol-5-yl]-10-methoxy-2-oxo-6,7-dihydro-2H-pyrido[2,1-a]isoquinoline-3-carboxylic Acid] as the compound, how does the IC50 [1] read?
Answer: 300 pM

Question: Which results are given for `COc1cc2c(cc1-c1cnc(N3CCC(C)(O)CC3)s1)CC(C(C)(C)C)n1cc(C(=O)O)c(=O)cc1-2` (stereo not shown) [Example 7, 6-tert-butyl-9-[2-(4-hydroxy-4-methylpiperidin-1-yl)thiazol-5-yl]-10-methoxy-2-oxo-6,7-dihydro-2H-pyrido[2,1-a]isoquinoline-3-carboxylic Acid]?
Answer: IC50 [1]: 80 pM; IC50 [2]: 150 pM

Question: For `COc1cc2c(cc1-c1cnc(N3CCC(OC)CC3)s1)CC(C(C)(C)C)n1cc(C(=O)O)c(=O)cc1-2` (stereo not shown) [Example 8, 6-tert-butyl-10-methoxy-9-[2-(4-methoxypiperidin-1-yl)thiazol-5-yl]-2-oxo-6,7-dihydro-2H-pyrido[2,1-a]isoquinoline-3-carboxylic Acid], which IC50 [1] is on record?
Answer: 200 pM

Question: For `COc1cc2c(cc1-c1cnc(N3CC(OC)C3)s1)CC(C(C)(C)C)n1cc(C(=O)O)c(=O)cc1-2` (stereo not shown) [Example 9, 6-tert-butyl-10-methoxy-9-[2-(3-methoxyazetidin-1-yl)thiazol-5-yl]-2-oxo-6,7-dihydro-2H-pyrido[2,1-a]isoquinoline-3-carboxylic Acid], which IC50 [1] is on record?
Answer: 30 pM

Question: And the IC50 [2]?
Answer: 100 pM

Question: For `COc1cc2c(cc1-c1cnc(N3CC(F)C3)s1)CC(C(C)(C)C)n1cc(C(=O)O)c(=O)cc1-2` (stereo not shown) [Example 11, 6-tert-butyl-9-[2-(3-fluoroazetidin-1-yl)thiazol-5-yl]-10-methoxy-2-oxo-6,7-dihydro-2H-pyrido[2,1-a]isoquinoline-3-carboxylic Acid], which IC50 [1] is on record?
Answer: 90 pM

Question: What about the IC50 [2] of the same compound?
Answer: 130 pM

Question: Which IC50 [1] does the source give for `COc1ncc(-c2cc3c(cc2OC)-c2cc(=O)c(C(=O)O)cn2C(C(C)(C)C)C3)s1` (stereo not shown) [Example 12, 6-tert-butyl-10-methoxy-9-(2-methoxythiazol-5-yl)-2-oxo-6,7-dihydro-2H-pyrido[2,1-a]isoquinoline-3-carboxylic Acid] here?
Answer: 450 pM

Question: Which IC50 [1] does the source give for `CCOCc1ncc(-c2cc3c(cc2OC)-c2cc(=O)c(C(=O)O)cn2C(C(C)(C)C)C3)s1` (stereo not shown) [Example 14, 6-tert-butyl-9-[2-(ethoxymethyl)thiazol-5-yl]-10-methoxy-2-oxo-6,7-dihydro-2H-pyrido[2,1-a]isoquinoline-3-carboxylic Acid] here?
Answer: 200 pM

Question: For `COc1cc2c(cc1-c1cnc(C(C)OC)s1)CC(C(C)(C)C)n1cc(C(=O)O)c(=O)cc1-2` (stereo not shown) [Example 15, 6-tert-butyl-10-methoxy-9-[2-(1-methoxyethyl)thiazol-5-yl]-2-oxo-6,7-dihydro-2H-pyrido[2,1-a]isoquinoline-3-carboxylic Acid], which IC50 [1] is on record?
Answer: 200 pM

Question: With `COc1cc2c(cc1-c1cnc(C(C)(C)OC)s1)CC(C(C)(C)C)n1cc(C(=O)O)c(=O)cc1-2` (stereo not shown) [Example 17, 6-tert-butyl-10-methoxy-9-[2-(2-methoxypropan-2-yl)thiazol-5-yl]-2-oxo-6,7-dihydro-2H-pyrido[2,1-a]isoquinoline-3-carboxylic Acid] as the compound, how does the IC50 [1] read?
Answer: 300 pM

Question: For `CNC(=O)c1ncc(-c2cc3c(cc2OC)-c2cc(=O)c(C(=O)O)cn2C(C(C)(C)C)C3)s1` (stereo not shown) [Example 19, 6-tert-butyl-10-methoxy-9-[2-(methylcarbamoyl)thiazol-5-yl]-2-oxo-6,7-dihydro-2H-pyrido[2,1-a]isoquinoline-3-carboxylic Acid], which bioavailability ([3]; mouse, plasma, oral 10 mg/kg vs intravenous 2 mg/kg, read-out: F (bioavailability)) is on record?
Answer: 87%

Question: What about the AUC(0-inf) [3, 4] of the same compound?
Answer: 1210 ng·h/mL

Question: And the Cmax [3, 4]?
Answer: 1020 ng/mL

Question: What about the Tmax [3, 4] of the same compound?
Answer: 4.8 min

Question: What about the clearance [3, 4] of the same compound?
Answer: 27.6 mL/min/kg

Question: What about the half-life [3, 4] of the same compound?
Answer: 78 min

Question: What about the AUC(0-t) [3, 4] of the same compound?
Answer: 1200 ng·h/mL

Question: And the Vd ([3]; mouse, single intravenous injection 2 mg/kg, plasma, read-out: Vss)?
Answer: 2.27 L/kg

Question: What about the AUC(0-inf) [3, 5] of the same compound?
Answer: 5290 ng·h/mL

Question: And the Cmax [3, 5]?
Answer: 2420 ng/mL

Question: And the Tmax [3, 5]?
Answer: 30 min

Question: And the half-life [3, 5]?
Answer: 150 min

Question: What about the AUC(0-t) [3, 5] of the same compound?
Answer: 5210 ng·h/mL

Question: What about the “plasma exposure compared with the control compound” value ([3]; same dose, after intravenous injection and oral administration) of the same compound?
Answer: significantly higher

Question: And the IC50 [1]?
Answer: 300 pM

Question: With `CCNC(=O)c1ncc(-c2cc3c(cc2OC)-c2cc(=O)c(C(=O)O)cn2C(C(C)(C)C)C3)s1` (stereo not shown) [Example 20, 6-tert-butyl-9-[2-(ethylcarbamoyl)thiazol-5-yl]-10-methoxy-2-oxo-6,7-dihydro-2H-pyrido[2,1-a]isoquinoline-3-carboxylic Acid] as the compound, how does the IC50 [1] read?
Answer: 300 pM

Question: With `COCCOc1ncc(-c2cc3c(cc2OC)-c2cc(=O)c(C(=O)O)cn2C(C(C)(C)C)C3)s1` (stereo not shown) [Example 21, 6-tert-butyl-10-methoxy-9-[2-(2-methoxyethoxy)thiazol-5-yl]-2-oxo-6,7-dihydro-2H-pyrido[2,1-a]isoquinoline-3-carboxylic Acid] as the compound, how does the IC50 [1] read?
Answer: 300 pM

Question: Which IC50 [1] does the source give for `COCCNC(=O)c1ncc(-c2cc3c(cc2OC)-c2cc(=O)c(C(=O)O)cn2C(C(C)(C)C)C3)s1` (stereo not shown) [Example 22, 6-tert-butyl-10-methoxy-9-{2-[(2-methoxyethyl)carbamoyl]thiazol-5-yl}-2-oxo-6,7-dihydro-2H-pyrido[2,1-a]isoquinoline-3-carboxylic Acid] here?
Answer: 400 pM

Question: For `COc1cc2c(cc1-c1cnc(C3CC(F)(F)C3)s1)CC(C(C)(C)C)n1cc(C(=O)O)c(=O)cc1-2` (stereo not shown) [Example 25, 6-tert-butyl-9-[2-(3,3-difluorocyclobutyl)thiazol-5-yl]-10-methoxy-2-oxo-6,7-dihydro-2H-pyrido[2,1-a]isoquinoline-3-carboxylic Acid], which IC50 [1] is on record?
Answer: 240 pM

Question: For `COc1cc2c(cc1-c1cnc(C3CC(F)C3)s1)CC(C(C)(C)C)n1cc(C(=O)O)c(=O)cc1-2` (stereo not shown) [Example 26, 6-tert-butyl-9-[2-(3-fluorocyclobutyl)thiazol-5-yl]-10-methoxy-2-oxo-6,7-dihydro-2H-pyrido[2,1-a]isoquinoline-3-carboxylic Acid], which IC50 [1] is on record?
Answer: 100 pM

Question: With `COc1cc2c(cc1-c1cnc(C3CC(OC)C3)s1)CC(C(C)(C)C)n1cc(C(=O)O)c(=O)cc1-2` (stereo not shown) [Example 27, 6-tert-butyl-10-methoxy-9-[2-(3-methoxycyclobutyl)thiazol-5-yl]-2-oxo-6,7-dihydro-2H-pyrido[2,1-a]isoquinoline-3-carboxylic Acid] as the compound, how does the IC50 [1] read?
Answer: 100 pM
